Biological target: Protein cereblon (Homo sapiens, UniProt Q96SW2)
Experiment: Fluorescence Binding Assay: Fluorescence quenching end point measurements were performed in black polystyrene 384-plates on Tecan Safire monochromator reader with the following settings: excitation 280 nm; excitation bandwidth 10.0 nm; emission collection 340 nm; emission bandwidth 20.0 nm; high sensitivity flash mode; integration time 40 μS; delay 0 […]. All measurements were done in duplicates; GraphPad Prism 5.03 was used for data evaluation, curve fitting, plotting and determination of IC50 values.Serial dilutions of each tested ligands were mixed with truncated CRBN (319-427) to a final volume of 25 μL in the assay buffer (20 mM sodium phosphate buffer, pH 6.5, with 150 mM sodium chloride). The final concentration of CRBN in all assay will be 5-10 μM with DMSO level at 4%. A control lanes were prepared with only tested ligands without the addition of CRBN, top up with assay buffer to 25 μL. Plates were incubated for 5 minutes and analyzed using the monochromator plate reader.

Protein cereblon, sequence (Q96SW2 whole entry, the tested form may be a part): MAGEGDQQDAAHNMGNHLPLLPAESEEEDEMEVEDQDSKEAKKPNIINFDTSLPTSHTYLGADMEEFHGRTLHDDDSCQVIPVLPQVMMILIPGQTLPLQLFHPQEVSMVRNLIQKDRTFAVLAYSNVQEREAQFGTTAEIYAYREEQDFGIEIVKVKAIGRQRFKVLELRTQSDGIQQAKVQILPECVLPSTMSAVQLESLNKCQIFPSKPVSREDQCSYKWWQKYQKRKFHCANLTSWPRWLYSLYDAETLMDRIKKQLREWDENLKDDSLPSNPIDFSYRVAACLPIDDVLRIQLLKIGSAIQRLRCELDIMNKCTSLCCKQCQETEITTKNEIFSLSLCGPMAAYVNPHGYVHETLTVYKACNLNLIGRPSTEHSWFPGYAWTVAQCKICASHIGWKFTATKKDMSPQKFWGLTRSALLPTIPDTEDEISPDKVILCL

IC50: > 300 µM
SMILES: Nc1ccc(-c2ccc3c(c2)CC(=O)N3)cn1
